Measured values as given in patent US8436004B2, “Bicycloaniline derivative” (MSD K.K., priority 2007, dated 2013).
Where a name gives a salt, the structure may show the parent alone.

Columns and labels:
[1] = test system: Human colon cancer cells WiDr; assay: Tumor growth inhibitory effect, WiDr subcutaneous xenograft in nude rats; type: in vivo, F344/N Jcl-rnu nude rats; details: gemcitabine 5 mg/kg i.v. days 0, 7, 14, Example 1 15 mg/kg oral days 1, 8, 15, n=5
Protocol: Pharmacological Test 4 (Tumor Growth Inhibitory Effect)
Human colon cancer cells WiDr (obtained from ATCC) were implanted into the subcutaneous area of the back of F344/N Jcl-rnu nude rats. 12 days after the implantation, 5 mg/kg of gemcitabine (Gemzar, from Eli Lily) was intravenously administered to them; and after 24 hours, a test compound suspended in a solvent (0.5% methyl cellulose) was orally administered thereto. This was repeated once a week for 3 weeks. The tumor volume (0.5×major diameter×(minor diameter)^2) was measured on days 0, 3, 6, 10, 13, 17, 20, 24 and 27 (the first gemcitabine administration is on day 0). The relative tumor volume was calculated, based on the tumor volume on day 0, as 1. The tumor growth rate (% T/C) was obtained according to the formulae mentioned below.
In case where the tumor volume change from day 0 in the test compound administration group is more than 0 (>0): % T/C=(tumor volume change in the test compound group on days 3, 6, 10, 13, 17, 20, 24 and 27/tumor volume change in the control group on days 3, 6, 10, 13, 17, 20, 24 and 27)×100. In case where the tumor volume change from day 0 in the test compound administration group is less than 0 (<0): % T/C=(tumor volume change in the test compound group on days 3, 6, 10, 13, 17, 20, 24 and 27/tumor volume […] in the test compound group on day 0)×100.
Gemcitabine was administered on days 0, 7 and 14. The compound of Example 1 was administered on days 1, 8 and 15.

[2] = test system: Human colon cancer cells (WiDr); assay: Checkpoint-escape effect in gemcitabine-treated WiDr cells (phosphorylated histone H3-positive cells); type: cell-based; details: gemcitabine 100 nM 24 hours, then test compound + nocodazole 8 hours
From the text: Pharmacological Test 3 (Method of Determining Drug Potency with Cells (Checkpoint-Escape Effect))
Fetal bovine serum (FBS) was obtained from Morgate; a medium of DMEM was from Invitrogen; gemcitabine was from Nippon Eli Lilly; nocodazole and 4′,6-diamidino-2-phenylindole were from Sigma; rabbit anti-phosphorylated histone H3 antibody was from Upstate; and fluorescence-labeled (Alexa Fluor 488) anti-rabbit IgG antibody was from Molecular Probe.
Human colon cancer cells (WiDr) were obtained from American Type Culture Collection (ATCC).
The cells were suspended in a medium of 10% FBS-added DMEM, and the cell suspension was applied to a poly-D-lysine-coated 96-well plastic plate (bought from Becton Dickinson) in an amount of 2000 cells/100 μL/well, in which the cells were incubated overnight in 5% CO2-95% air at 37° C. […] Next, this was washed with PBS, and a solution containing 4′,6-diamidino-2-phenylindole that had been diluted with 1% BSA/PBS to have a concentration 10 μg/mL and a fluorescence-labeled (Alexa Fluor 488) anti-rabbit IgG antibody that had been diluted 250-fold was added to it in an amount 50 μL/well, and reacted in a dark place at room temperature for 60 minutes. […]

Q: How did the “% T/C day 3” value ([1]; day 3) turn out when `CN1Cc2cc(Nc3ncc4c(=N)n(-c5c(Cl)cccc5Cl)c(=O)[nH]c4n3)ccc2C2(CC2)C1` [Example 1, 3-(2,6-dichlorophenyl)-4-imino-7-[(2′-methyl-2′,3′-dihydro-1′H-spiro[cyclopropane-1,4′-isoquinolin]-7′-yl)amino]-3,4-dihydropyrimido[4,5-d]pyrimidin-2(1H)-one dihydrochloride] was run?
A: The value was 107%.

Q: And the “% T/C day 6” value ([1]; day 6)?
A: The value was 100%.

Q: And the “% T/C day 10” value ([1]; day 10)?
A: Its value is 87%.

Q: And the “% T/C day 13” value ([1]; day 13)?
A: The value was 91%.

Q: And the “% T/C day 17” value ([1]; day 17)?
A: Its value is 88%.

Q: What about the “% T/C day 20” value ([1]; day 20) of the same molecule?
A: The value was 85%.

Q: And the “% T/C day 24” value ([1]; day 24)?
A: The value was 83%.

Q: What about the “% T/C day 27” value ([1]; day 27) of the same molecule?
A: The value was 88%.

Q: What about the EC50 [2] of the same molecule?
A: Its EC50 is 37 nM.
